Laboratory results from patent publication US12077537B2 (Gilead Sciences, Inc., priority 2020, dated 2024).
pEC50: −log10 of the molar value.

Each compound was assayed on HIV-IIIb (assay: Antiviral assay in MT4 cells). Conditions: Human immunodeficiency virus 1, MT4, 120 h; MT-4 cells mixed with HIV-IIIb at m.o.i. 0.003; 5 days at 37° C.; CellTiter-Glo luminescence; 50% decrease in signal, a measure of HIV-1 replication.
Assay type: cell-based
How it was run: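 Compound, tested at ten 3-fold dilutions in quadruplicate in 10% FBS medium, received MT-4 cells pre-mixed 1 hour with HIV-IIIb (m.o.i. 0.003). Protection was read as luminescent cell viability (CellTiter-Glo) after 5 days' culture at 37° C.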

**Q.** With `Cn1nc(NS(C)(=O)=O)c2c(Cl)ccc(-c3cc4sc(O)nc4nc3[C@H](Cc3cc(F)cc(F)c3)NC(=O)Cn3nc(C(F)F)c4c3C(F)(F)[C@@H]3C[C@H]43)c21` [Example 112, N—((S)-1-(6-(4-chloro-1-methyl-3-(methylsulfonamido)-1H-indazol-7-yl)-2-hydroxythiazolo[4,5-b]pyridin-5-yl)-2-(3,5-difluorophenyl)ethyl)-2-((3bS,4aR)-3-(difluoromethyl)-5,5-difluoro-3b,4,4a,5-tetrahydro-1H-cyclopropa[3,4]cyclopenta[1,2-c]pyrazol-1-yl)acetamide] as the compound, how does the pEC50 read?
**A.** 8.42

**Q.** With `Cn1nc(NS(C)(=O)=O)c2cccc(-c3cc4sc(O)nc4nc3[C@H](Cc3cc(F)cc(F)c3)NC(=O)Cn3nc(C(F)(F)F)c4c3C(F)(F)[C@@H]3C[C@H]43)c21` [Example 113, 2-((3bS,4aR)-5,5-difluoro-3-(trifluoromethyl)-3b,4,4a,5-tetrahydro-1H-cyclopropa[3,4]cyclopenta[1,2-c]pyrazol-1-yl)-N—((S)-2-(3,5-difluorophenyl)-1-(2-hydroxy-6-(1-methyl-3-(methylsulfonamido)-1H-indazol-7-yl)thiazolo[4,5-b]pyridin-5-yl)ethyl)acetamide] as the compound, how does the pEC50 read?
**A.** 8.09

**Q.** `NC(=O)c1cc(-c2cc3nc(O)oc3nc2[C@H](Cc2cc(F)cc(F)c2)NC(=O)Cn2nc(C(F)(F)F)c3c2C(F)(F)[C@@H]2C[C@H]32)ccc1F` [Example 114, 5-(5-((S)-1-(2-((3bS,4aR)-5,5-difluoro-3-(trifluoromethyl)-3b,4,4a,5-tetrahydro-1H-cyclopropa[3,4]cyclopenta[1,2-c]pyrazol-1-yl)acetamido)-2-(3,5-difluorophenyl)ethyl)-2-hydroxyoxazolo[5,4-b]pyridin-6-yl)-2-fluorobenzamide] was tested. Which pEC50 did it give?
**A.** 6.23

**Q.** How did the pEC50 turn out when `Cn1nc(N)c2c(Cl)ccc(-c3cc4sc(NCC(C)(C)O)nc4nc3[C@H](Cc3cc(F)cc(F)c3)NC(=O)Cn3nc(C(F)(F)F)c4c3C(F)(F)[C@@H]3C[C@H]43)c21` [Example 115, N—((S)-1-(6-(3-amino-4-chloro-1-methyl-1H-indazol-7-yl)-2-((2-hydroxy-2-methylpropyl)amino)thiazolo[4,5-b]pyridin-5-yl)-2-(3,5-difluorophenyl)ethyl)-2-((3bS,4aR)-5,5-difluoro-3-(trifluoromethyl)-3b,4,4a,5-tetrahydro-1H-cyclopropa[3,4]cyclopenta[1,2-c]pyrazol-1-yl)acetamide] was run?
**A.** 8.15

**Q.** With `Cn1nc(N)c2c(Cl)ccc(-c3cc4sc(NCC(C)(C)O)nc4nc3[C@H](Cc3cc(F)cc(F)c3)NC(=O)Cn3nc(C(F)F)c4c3C(F)(F)[C@@H]3C[C@H]43)c21` [Example 116, N—((S)-1-(6-(3-amino-4-chloro-1-methyl-1H-indazol-7-yl)-2-((2-hydroxy-2-methylpropyl)amino)thiazolo[4,5-b]pyridin-5-yl)-2-(3,5-difluorophenyl)ethyl)-2-((3bS,4aR)-3-(difluoromethyl)-5,5-difluoro-3b,4,4a,5-tetrahydro-1H-cyclopropa[3,4]cyclopenta[1,2-c]pyrazol-1-yl)acetamide] as the compound, how does the pEC50 read?
**A.** 8.46

**Q.** `NC(=O)c1cc(-c2nc3nc(C(Cc4cc(F)cc(F)c4)NC(=O)Cn4nc(C(F)(F)F)c5c4C(F)(F)[C@@H]4C[C@H]54)c(-c4ccc(F)c(C(N)=O)c4)cc3s2)ccc1F` (stereo partly drawn) [Example 117, 5,5′-(5-(1-(2-((3bS,4aR)-5,5-difluoro-3-(trifluoromethyl)-3b,4,4a,5-tetrahydro-1H-cyclopropa[3,4]cyclopenta[1,2-c]pyrazol-1-yl)acetamido)-2-(3,5-difluorophenyl)ethyl)thiazolo[4,5-b]pyridine-2,6-diyl)bis(2-fluorobenzamide)] was tested. Which pEC50 did it give?
**A.** 7.03

**Q.** With `NC(=O)c1cc(-c2cc3sc(-c4ccccc4)nc3nc2[C@H](Cc2cc(F)cc(F)c2)NC(=O)Cn2nc(C(F)(F)F)c3c2C(F)(F)[C@@H]2C[C@H]32)ccc1F` [Example 118, 5-(5-((S)-1-(2-((3bS,4aR)-5,5-difluoro-3-(trifluoromethyl)-3b,4,4a,5-tetrahydro-1H-cyclopropa[3,4]cyclopenta[1,2-c]pyrazol-1-yl)acetamido)-2-(3,5-difluorophenyl)ethyl)-2-phenylthiazolo[4,5-b]pyridin-6-yl)-2-fluorobenzamide] as the compound, how does the pEC50 read?
**A.** 6.52

**Q.** With `NC(=O)c1nc2nc(C(Cc3cc(F)cc(F)c3)NC(=O)Cn3nc(C(F)(F)F)c4c3C(F)(F)[C@@H]3C[C@H]43)c(-c3ccc(F)c(C(N)=O)c3)cc2s1` (stereo partly drawn) [Example 119, 6-(3-carbamoyl-4-fluorophenyl)-5-(1-(2-((3bS,4aR)-5,5-difluoro-3-(trifluoromethyl)-3b,4,4a,5-tetrahydro-TH-cyclopropa[3,4]cyclopenta[1,2-c]pyrazol-1-yl)acetamido)-2-(3,5-difluorophenyl)ethyl)thiazolo[4,5-b]pyridine-2-carboxamide] as the compound, how does the pEC50 read?
**A.** 7.14

**Q.** With `Cc1c(-c2cc3[nH]c(-c4ccccc4)cc3nc2[C@H](Cc2cc(F)cc(F)c2)NC(=O)Cn2nc(C(F)(F)F)c3c2C(F)(F)[C@@H]2C[C@H]32)ccc2n[nH]c(=O)n12` [Example 120, 2-((3bS,4aR)-5,5-difluoro-3-(trifluoromethyl)-3b,4,4a,5-tetrahydro-1H-cyclopropa[3,4]cyclopenta[1,2-c]pyrazol-1-yl)-N—((S)-2-(3,5-difluorophenyl)-1-(6-(5-methyl-3-oxo-2,3-dihydro-[1,2,4]triazolo[4,3-a]pyridin-6-yl)-2-phenyl-1H-pyrrolo[3,2-b]pyridin-5-yl)ethyl)acetamide] as the compound, how does the pEC50 read?
**A.** 6.53

**Q.** How did the pEC50 turn out when `Cn1nc(NS(C)(=O)=O)c2cccc(-c3cc4[nH]c(-c5ccccc5)cc4nc3[C@H](Cc3cc(F)cc(F)c3)NC(=O)Cn3nc(C(F)(F)F)c4c3C(F)(F)[C@@H]3C[C@H]43)c21` [Example 121, 2-((3bS,4aR)-5,5-difluoro-3-(trifluoromethyl)-3b,4,4a,5-tetrahydro-1H-cyclopropa[3,4]cyclopenta[1,2-c]pyrazol-1-yl)-N—((S)-2-(3,5-difluorophenyl)-1-(6-(1-methyl-3-(methylsulfonamido)-1H-indazol-7-yl)-2-phenyl-1H-pyrrolo[3,2-b]pyridin-5-yl)ethyl)acetamide] was run?
**A.** 7.10

**Q.** How did the pEC50 turn out when `Cn1nc(NS(C)(=O)=O)c2cccc(-c3cc4[nH]c(-c5ccccc5)cc4nc3[C@H](Cc3cc(F)cc(F)c3)NC(=O)Cn3nc(C(F)F)c4c3C3CC3CC4)c21` (stereo partly drawn) [Example 122, 2-(3-(difluoromethyl)-5,5a,6,6a-tetrahydrocyclopropa[g]indazol-1(4H)-yl)-N—((S)-2-(3,5-difluorophenyl)-1-(6-(1-methyl-3-(methylsulfonamido)-1H-indazol-7-yl)-2-phenyl-1H-pyrrolo[3,2-b]pyridin-5-yl)ethyl)acetamide] was run?
**A.** 7.91

**Q.** `Cn1cc(-c2nc3nc(C(Cc4cc(F)cc(F)c4)NC(=O)Cn4nc(C(F)(F)F)c5c4C(F)(F)[C@@H]4C[C@H]54)c(-c4cccc5c(NS(C)(=O)=O)nn(C)c45)cc3s2)cn1` (stereo partly drawn) [Example 123, 2-((3bS,4aR)-5,5-difluoro-3-(trifluoromethyl)-3b,4,4a,5-tetrahydro-1H-cyclopropa[3,4]cyclopenta[1,2-c]pyrazol-1-yl)-N-(2-(3,5-difluorophenyl)-1-(2-(1-methyl-1H-pyrazol-4-yl)-6-(1-methyl-3-(methylsulfonamido)-1H-indazol-7-yl)thiazolo[4,5-b]pyridin-5-yl)ethyl)acetamide] was tested. Which pEC50 did it give?
**A.** 8.07

**Q.** `Cn1nc(NS(C)(=O)=O)c2cccc(-c3cc4sc(N5CCC(C)(O)CC5)nc4nc3C(Cc3cc(F)cc(F)c3)NC(=O)Cn3nc(C(F)(F)F)c4c3C(F)(F)[C@@H]3C[C@H]43)c21` (stereo partly drawn) [Example 124, 2-((3bS,4aR)-5,5-difluoro-3-(trifluoromethyl)-3b,4,4a,5-tetrahydro-1H-cyclopropa[3,4]cyclopenta[1,2-c]pyrazol-1-yl)-N-(2-(3,5-difluorophenyl)-1-(2-(4-hydroxy-4-methylpiperidin-1-yl)-6-(1-methyl-3-(methylsulfonamido)-1H-indazol-7-yl)thiazolo[4,5-b]pyridin-5-yl)ethyl)acetamide] was tested. Which pEC50 did it give?
**A.** 7.87

**Q.** `Cn1nc(NS(C)(=O)=O)c2cccc(-c3cc4sc(N5CCC(C)(O)C5)nc4nc3C(Cc3cc(F)cc(F)c3)NC(=O)Cn3nc(C(F)(F)F)c4c3C(F)(F)[C@@H]3C[C@H]43)c21` (stereo partly drawn) [Example 125, 2-((3bS,4aR)-5,5-difluoro-3-(trifluoromethyl)-3b,4,4a,5-tetrahydro-1H-cyclopropa[3,4]cyclopenta[1,2-c]pyrazol-1-yl)-N-(2-(3,5-difluorophenyl)-1-(2-(3-hydroxy-3-methylpyrrolidin-1-yl)-6-(1-methyl-3-(methylsulfonamido)-1H-indazol-7-yl)thiazolo[4,5-b]pyridin-5-yl)ethyl)acetamide] was tested. Which pEC50 did it give?
**A.** 7.76

**Q.** How did the pEC50 turn out when `Cn1nc(NS(C)(=O)=O)c2cccc(-c3cc4sc(N5CCC(C)(N)CC5)nc4nc3C(Cc3cc(F)cc(F)c3)NC(=O)Cn3nc(C(F)(F)F)c4c3C(F)(F)[C@@H]3C[C@H]43)c21` (stereo partly drawn) [Example 126, N-(1-(2-(4-amino-4-methylpiperidin-1-yl)-6-(1-methyl-3-(methylsulfonamido)-1H-indazol-7-yl)thiazolo[4,5-b]pyridin-5-yl)-2-(3,5-difluorophenyl)ethyl)-2-((3bS,4aR)-5,5-difluoro-3-(trifluoromethyl)-3b,4,4a,5-tetrahydro-TH-cyclopropa[3,4]cyclopenta[1,2-c]pyrazol-1-yl)acetamide] was run?
**A.** 7.47

**Q.** `Cn1nc(NS(C)(=O)=O)c2cccc(-c3cc4sc(N5CCC(C)(C(N)=O)CC5)nc4nc3C(Cc3cc(F)cc(F)c3)NC(=O)Cn3nc(C(F)(F)F)c4c3C(F)(F)[C@@H]3C[C@H]43)c21` (stereo partly drawn) [Example 127, 1-(5-(1-(2-((3bS,4aR)-5,5-difluoro-3-(trifluoromethyl)-3b,4,4a,5-tetrahydro-TH-cyclopropa[3,4]cyclopenta[1,2-c]pyrazol-1-yl)acetamido)-2-(3,5-difluorophenyl)ethyl)-6-(1-methyl-3-(methylsulfonamido)-1H-indazol-7-yl)thiazolo[4,5-b]pyridin-2-yl)-4-methylpiperidine-4-carboxamide] was tested. Which pEC50 did it give?
**A.** 7.50
